Results from patent US12233106B2, “C-type natriuretic peptide variants to treat skeletal dysplasia in children” (priority 2021, dated 2025).

What was measured:
[1] = normal human; cited from earlier work
[2] = clinical; conditions: human, in vivo, 15 ug/kg
Excerpt: Primary endpoints include length/height Z-score at Week 52 and evaluation of any adverse events. Secondary endpoints include AGV at Week 52, Bilateral X-rays of lower extremities, Lumbar spine X-rays, DXA of whole body and spine, AUC0-∞, AUC0-t, Cmax, Tmax, t1/2, CL/F, VZ/F, Hip monitoring clinical assessments, Bayley-III, WeeFIM, and ITQOL scores, CBCL scores, Anti-vosoritide total antibody (TAb), Anti-vosoritide antibody cross-reactivity with endogenous CNP, ANP, and BNP (TAb), Anti-vosoritide neutralizing antibody (NAb), CXM and bone-specific alkaline phosphatase, Collagen type II (CTX-II), Cyclic guanosine monophosphate (cGMP), anthropometric measurements, upper to lower body segment ratio, upper arm length to lower arm (forearm) length ratio, upper leg length (thigh) to knee to heel length ratio, upper leg length (thigh) to tibial length ratio, and arm span to standing height ratio.
The pharmacokinetics of vosoritide in the different populations of patients was also analyzed for any change in PK (Table 4). PD information (plasma cGMP and serum CXM) in 4 sentinel subjects and 33 randomized subjects (aged≥24 to <60 months) receiving 30 μg/kg vosoritide was available.

[3] = in vivo

CL/F ([2]; Mean CL/F, range over visits) [mL/min/kg] | Vd/F ([2]; Mean Vz/F, range over visits) [L/kg] | Tmax ([2]; Median Tmax, range over visits) [min] | Cmax ([2]; mean Cmax, range over visits) [ng/mL] | half-life ([2]; mean t1/2, range over visits) [min] | Tmax ([2]; sc, tmax, median [minimum, maximum]) [min] | Compound | in vivo (plasma) half-life [1] [min] | Adverse event of grade two or higher related to the study drug (CTCAE v5.0) [3]
 |  |  |  |  |  | CNP: mature 22-amino acid C-type natriuretic peptide (wild type CNP-22) | 2.6 | 
82.1 to 150 | 2.65 to 3.8 | 14 to 15.5 | 3.81 to 6.86 | 15.2 to 29.3 | 14 | CC[C@H](C)[C@@H]1NC(=O)[C@H](CCCNC(=N)N)NC(=O)[C@H](CC(=O)O)NC(=O)[C@H](CC(C)C)NC(=O)[C@H](CCCCN)NC(=O)[C@H](CC(C)C)NC(=O)CNC(=O)[C@H](Cc2ccccc2)NC(=O)[C@@H](NC(=O)CNC(=O)[C@H](CCCCN)NC(=O)[C@H](CO)NC(=O)[C@H](CC(C)C)NC(=O)CNC(=O)[C@H](CCCCN)NC(=O)[C@H](CCCCN)NC(=O)[C@H](CC(N)=O)NC(=O)[C@H](C)NC(=O)CNC(=O)[C@H](CCCCN)NC(=O)[C@H](Cc2ccc(O)cc2)NC(=O)[C@H](CCCCN)NC(=O)[C@H](CCCNC(=N)N)NC(=O)[C@H](C)NC(=O)[C@H](CC(N)=O)NC(=O)[C@@H]2CCCN2C(=O)[C@H](Cc2c[nH]cn2)NC(=O)[C@H](CCC(=O)O)NC(=O)[C@H](CCC(N)=O)NC(=O)CNC(=O)[C@@H]2CCCN2)CSSC[C@@H](C(=O)O)NC(=O)CNC(=O)[C@H](CC(C)C)NC(=O)CNC(=O)[C@H](CO)NC(=O)[C@H](CCSC)NC(=O)[C@H](CO)NC(=O)CNC1=O [vosoritide] |  | No patient
